From patent publication US7556807B2, “Signal peptides, nucleic acid molecules and methods for treatment of caries” (priority 2001, dated 2009)

What was measured:
[1] = tested on: S. mutans comD null mutant; experiment: Genetic transformation of S. mutans comD null mutant in presence of H1; format: cell-based, Streptococcus mutans; conditions: different concentrations of H1
Excerpt: An S. mutans UA159 comD null mutant was constructed by a PCR-based deletion strategy involving restriction-ligation and allelic replacement as described previously (Lau et al., 2002). The primers used to construct and confirm the S. mutans comD deletion mutant were P1-HK13 (5′-[…]-3′; SEQ ID NO:52), P2-HK13 (5′-[…]-3′; SEQ ID NO:53), P3-HK13 (5′-[…]-3′; SEQ ID NO:54), P4-HK13 (5′-AGATTATCATTGGC GGAAGCG-3′; SEQ ID NO:55), Erm-19 (5′-[…]-3′; SEQ ID NO:56), and Erm-20 (5′-[…] TAGAAT-3′; SEQ ID NO:57).
To determine if the peptide analogs had any impact on the development of genetic competence, S. mutans UA159 wild-type cells were assayed for genetic transformation. Overnight cultures of S. mutans UA159 were diluted (1:20) with prewarmed THYE broth and incubated at 37° C. in air with 5% CO2 until an optical density (OD) of approximately 0.1 at 600 nm was reached. The culture was then divided into six aliquots containing 1 μg/ml of plasmid pDL289 and different concentrations (0, 0.1, 0.5, 2, and 5 μg per ml) of peptide analogs. […] Total recipient cells were counted by spreading serial dilutions on THYE agar plates without antibiotic. Transformation efficiency was expressed as the percentage of kanamycin resistant transformants over the total number of recipient cells.

[2] = tested on: S. mutans wild-type UA159; experiment: S. mutans acid resistance assay (growth in THYE at pH 7.5 and pH 5.5); format: cell-based, Streptococcus mutans; conditions: 5 μg/ml of peptide analog; for Growth (pH 7.5): THYE pH 7.5; for Acid resistance (pH 5.5): growth in THYE pH 5.5
Description: The effect of peptides on acid tolerance was evaluated by assessment of growth in THYE at pH 7.5 and pH 5.5. Overnight S. mutans wild-type UA159 cells were diluted (1:20) with prewarmed THYE broth and incubated at 37° C. in air with 5% CO2 until an OD600 of approximately 0.4 was reached. A 20-fold dilution was made into 400 μl of either THYE pH 7.5 or THYE pH 5.5 broth containing different concentrations (0, 0.1, 0.5, 2, and 5 μg per ml) of peptide analogs and added in the individual wells of a 100-well Bioscreen C plate in triplicate. Wells without cells were used as blank controls. A Bioscreen microbiology reader (Labsystems, Helsinki, Finland) was employed to continuously grow cells and measure cell growth for 16 h at 37° C. Measurements were taken every 20 min with shaking to prevent cell aggregation.

[3] = tested on: S. mutans wild-type UA159; experiment: S. mutans biofilms formed on polystyrene microtiter plates (b), SDM-glucose, safranin (first study); format: cell-based, Streptococcus mutans; conditions: 5 μg/ml of peptide analog; ↓ = reduced biomass compared to biofilm grown in presence of wild-type CSP
Description: Biofilms were developed in 96-well polystyrene microtiter plates. […] Wells without cells were used as blank controls. […] After the incubation, the planktonic cells were carefully removed and the plates were air dried overnight. The plates were then stained with 0.01% (wt/vol) safranin for 10 min, rinsed with sterile distilled water and air dried. Biofilms were quantified by measuring the absorbance of stained biofilms at 490 nm with a microplate reader (model 3550; Bio-Rad Laboratories, Richmond, Calif.).

[4] = tested on: S. mutans comC null mutant; conditions: exogenous addition of synthetic CSP; Li et al., 2002; cited from earlier work
[5] = tested on: S. mutans comC deficient cells; experiment: Acid resistance tolerance of S. mutans comC deficient cells with added synthetic CSP (FIG. 12); format: cell-based, Streptococcus mutans; conditions: synthetic CSP added to culture of comC mutant; compared to parent strain NG8
Description: The ability of CSP [SEQ ID NO:11] to promote acid resistance tolerance is determined by measuring the cell survival rate of S. mutans when exposed to acidic pH. In one example, S. mutans are first grown in batch culture to assay acid tolerance response in ‘standard’ log- and stationary-phase cells by using a modification of methods described previously by Svensäter et al. Oral Microbiol. Immunol., 12:266-73. Mid-log-phase cells are obtained by transferring one volume of overnight culture into nine volumes (1:10) of fresh TYG medium (pH 7.5) and incubated at 37° C. with 5% CO2 for 2 hours. These cells are then collected by centrifugation at 8,000×g for 10 min and resuspended in 2 ml of fresh TYG (pH 5.5) at various cell densities as determined by O.D600. The cells are induced for acid adaptation by incubation at pH 5.5 for 2 h at 37° C. with 5% CO2. The adapted log-phase cells are then exposed to the killing pH. Killing pH is pre-determined by incubating unadapted, mid-log phase cells in TYG medium at pH values from 6.0 to 2.0. Stationary-phase cells are prepared by re-suspending late-log phase cells in TY medium (tryptone-yeast extract) without glucose. […] Adaptation of both log- and stationary-phase cells to acidic pH is determined by measuring the ability of bacterial cells to survive a killing pH for 3 h. […]

Row | Substance | Effect of H1 on genetic competence in comD null mutant [1] | Growth (pH 7.5) [2] | Acid resistance (pH 5.5) [2] | Bioflim formation (SDM-glucose) [3] | Biofilm phenotype of comC defective mutant [4] | Survival of low pH challenge by comC mutant [5]
1 | H1: S. mutans CSP analog, 4th residue removed from C′ (SGSLSTFFRLFNVSFTQALGK; D2 peptide analog) | ComD-dependent process | no effect | significant decrease in cell growth | no effect | – | –
2 | SGSLSTFFRLFNRSFTQALGK (MKKTLSLKNDFKEIKTDELEIIIGGSGSLSTFFRLFNRSFTQALGK; Streptococcus mutans) [CSP, reference compound] | – | ↓growth | growth | no effect | restores the wild-type phenotype | restored the ability of the mutant to survive a low pH challenge
